Source: ChEMBL document CHEMBL5625252, “Synthesis of peptidomimetics as antibiotic adjuvants for combination with aztreonam to combat MDR Pseudomonas aeruginosa” (Eur J Med Chem, 2023)
≈ marks a conversion by molar mass, not a printed value. Where a SMILES comes first, the peptide text is derived from it. The star is where a group is joined. βNA = c1ccc2cc(N*)ccc2c1

Assays:
[1] = test system: Pseudomonas aeruginosa; test: Antibacterial activity against Pseudomonas aeruginosa 16-11 in CAMH broth medium supplemented with 0.41 to 0.51 mM Mg2+ by checkerboard assay; type: functional
[2] = Cytotoxicity against HEK293 cells incubated for 24 hrs by MTT assay; type: toxicity, cell-based; settings: human
[3] = Cytotoxicity against human LX2 cells incubated for 24 hrs by MTT assay; type: toxicity, cell-based; settings: LX-2 cells
[4] = test system: Pseudomonas aeruginosa; test: Synergistic antibacterial activity against Pseudomonas aeruginosa PAO1 assessed as aztreonam MIC at 64 ug/ml incubated for 18 hrs by checkerboard method (reference value: 8 microg/ml); type: functional; settings: dose 64 µg/ml
[5] = test system: Pseudomonas aeruginosa; test: Antibacterial activity against Pseudomonas aeruginosa 21-8 assessed as inhibition of bacterial growth incubated for 18 hrs by agar dilution method; type: functional
[6] = test system: Pseudomonas aeruginosa; test: Synergistic antibacterial activity against Pseudomonas aeruginosa PAO1 assessed as fractional inhibitory concentration index at 128 ug/ml incubated for 18 hrs in presence of aztreonam by checkerboard method; type: functional; settings: dose 128 µg/ml
[7] = test system: Pseudomonas aeruginosa; test: Synergistic antibacterial activity against Pseudomonas aeruginosa 16-11 assessed as fractional inhibitory concentration index at 128 ug/ml incubated for 18 hrs in presence of aztreonam by checkerboard method; type: functional; settings: dose 128 µg/ml
[8] = test system: Pseudomonas aeruginosa; test: Synergistic antibacterial activity against Pseudomonas aeruginosa 13-35 assessed as fractional inhibitory concentration index at 128 ug/ml incubated for 18 hrs in presence of aztreonam by checkerboard method; type: functional; settings: dose 128 µg/ml
[9] = test system: Pseudomonas aeruginosa; test: Synergistic antibacterial activity against Pseudomonas aeruginosa 23-Y122 assessed as fractional inhibitory concentration index at 128 ug/ml incubated for 18 hrs in presence of aztreonam by checkerboard method; type: functional; settings: dose 128 µg/ml
[10] = test system: Pseudomonas aeruginosa; test: Synergistic antibacterial activity against Pseudomonas aeruginosa 23-Y417 assessed as fractional inhibitory concentration index at 128 ug/ml incubated for 18 hrs in presence of aztreonam by checkerboard method; type: functional; settings: dose 128 µg/ml
[11] = test system: Pseudomonas aeruginosa; test: Synergistic antibacterial activity against Pseudomonas aeruginosa 23-Y511 assessed as fractional inhibitory concentration index at 128 ug/ml incubated for 18 hrs in presence of aztreonam by checkerboard method; type: functional; settings: dose 128 µg/ml
[12] = test system: Pseudomonas aeruginosa; test: Synergistic antibacterial activity against Pseudomonas aeruginosa 12-1 assessed as fractional inhibitory concentration index at 128 ug/ml incubated for 18 hrs in presence of aztreonam by checkerboard method; type: functional; settings: dose 128 µg/ml
[13] = test system: Pseudomonas aeruginosa; test: Synergistic antibacterial activity against Pseudomonas aeruginosa 13-3 assessed as fractional inhibitory concentration index at 128 ug/ml incubated for 18 hrs in presence of aztreonam by checkerboard method; type: functional; settings: dose 128 µg/ml
[14] = test system: Pseudomonas aeruginosa; test: Synergistic antibacterial activity against Pseudomonas aeruginosa 23-Y539 assessed as fractional inhibitory concentration index at 128 ug/ml incubated for 18 hrs in presence of aztreonam by checkerboard method; type: functional; settings: dose 128 µg/ml
[15] = test system: Pseudomonas aeruginosa; test: Synergistic antibacterial activity against Pseudomonas aeruginosa 19-46 assessed as fractional inhibitory concentration index at 128 ug/ml incubated for 18 hrs in presence of aztreonam by checkerboard method; type: functional; settings: dose 128 µg/ml
[16] = test system: Pseudomonas aeruginosa; test: Synergistic antibacterial activity against Pseudomonas aeruginosa 19-55 assessed as fractional inhibitory concentration index at 128 ug/ml incubated for 18 hrs in presence of aztreonam by checkerboard method; type: functional; settings: dose 128 µg/ml
[17] = test system: Pseudomonas aeruginosa; test: Synergistic antibacterial activity against Pseudomonas aeruginosa 21-7 assessed as fractional inhibitory concentration index at 128 ug/ml incubated for 18 hrs in presence of aztreonam by checkerboard method; type: functional; settings: dose 128 µg/ml
[18] = test system: Pseudomonas aeruginosa; test: Antibacterial activity against Pseudomonas aeruginosa PAO1 assessed as fractional inhibitory concentration index upto 128 ug/ml incubated for 18 hrs in presence of aztreonam by checkerboard method; type: functional; settings: dose <= 128 µg/ml
[19] = test system: Pseudomonas aeruginosa; test: Antibacterial activity against Pseudomonas aeruginosa K854 overexpressing MexAB-OprM assessed as fractional inhibitory concentration index upto 128 ug/ml incubated for 18 hrs in presence of aztreonam by checkerboard method; type: functional; settings: dose <= 128 µg/ml
[20] = test system: Pseudomonas aeruginosa; test: Antibacterial activity against Pseudomonas aeruginosa 13-35 in CAMH broth medium supplemented with 0.41 to 0.51 mM Mg2+ by checkerboard assay; type: functional
[21] = test system: Pseudomonas aeruginosa; test: Antibacterial activity against Pseudomonas aeruginosa 12-1 in CAMH broth medium supplemented with 0.41 to 0.51 mM Mg2+ by checkerboard assay; type: functional
[22] = test system: Pseudomonas aeruginosa; test: Antibacterial activity against Pseudomonas aeruginosa PAO1 in CAMH broth medium supplemented with 20.99 to 21.09 mM Mg2+ by checkerboard assay; type: functional
[23] = test system: Pseudomonas aeruginosa; test: Antibacterial activity against Pseudomonas aeruginosa 16-11 in CAMH broth medium supplemented with 20.99 to 21.09 mM Mg2+ by checkerboard assay; type: functional
[24] = test system: Pseudomonas aeruginosa; test: Antibacterial activity against Pseudomonas aeruginosa 13-35 in CAMH broth medium supplemented with 20.99 to 21.09 mM Mg2+ by checkerboard assay; type: functional
[25] = test system: Pseudomonas aeruginosa; test: Antibacterial activity against Pseudomonas aeruginosa 12-1 in CAMH broth medium supplemented with 20.99 to 21.09 mM Mg2+ by checkerboard assay; type: functional
[26] = test system: Pseudomonas aeruginosa; test: Synergistic antibacterial activity against Pseudomonas aeruginosa 16-11 in CAMH broth medium supplemented with 0.41 to 0.51 mM Mg2+ in presence of aztreonam by checkerboard assay; type: functional
[27] = test system: Pseudomonas aeruginosa; test: Synergistic antibacterial activity against Pseudomonas aeruginosa 13-35 in CAMH broth medium supplemented with 0.41 to 0.51 mM Mg2+ in presence of aztreonam by checkerboard assay; type: functional
[28] = test system: Pseudomonas aeruginosa; test: Synergistic antibacterial activity against Pseudomonas aeruginosa 12-1 in CAMH broth medium supplemented with 0.41 to 0.51 mM Mg2+ in presence of aztreonam by checkerboard assay; type: functional
[29] = test system: Pseudomonas aeruginosa; test: Synergistic antibacterial activity against Pseudomonas aeruginosa 16-11 in CAMH broth medium supplemented with 20.99 to 21.09 mM Mg2+ in presence of aztreonam by checkerboard assay; type: functional
[30] = test system: Pseudomonas aeruginosa; test: Synergistic antibacterial activity against Pseudomonas aeruginosa 13-35 in CAMH broth medium supplemented with 20.99 to 21.09 mM Mg2+ in presence of aztreonam by checkerboard assay; type: functional
[31] = test system: Pseudomonas aeruginosa; test: Synergistic antibacterial activity against Pseudomonas aeruginosa 12-1 in CAMH broth medium supplemented with 20.99 to 21.09 mM Mg2+ in presence of aztreonam by checkerboard assay; type: functional
[32] = test system: Pseudomonas aeruginosa; test: Synergistic antibacterial activity against Pseudomonas aeruginosa PAO1 assessed as fractional inhibitory concentration index in CAMH broth medium supplemented with 0.41 to 0.51 mM Mg2+ in presence of aztreonam by checkerboard assay; type: functional
[33] = test system: Pseudomonas aeruginosa; test: Synergistic antibacterial activity against Pseudomonas aeruginosa 13-35 assessed as fractional inhibitory concentration index in CAMH broth medium supplemented with 0.41 to 0.51 mM Mg2+ in presence of aztreonam by checkerboard assay; type: functional
[34] = test system: Pseudomonas aeruginosa; test: Synergistic antibacterial activity against Pseudomonas aeruginosa 12-1 assessed as fractional inhibitory concentration index in CAMH broth medium supplemented with 0.41 to 0.51 mM Mg2+ in presence of aztreonam by checkerboard assay; type: functional
[35] = test system: Pseudomonas aeruginosa; test: Synergistic antibacterial activity against Pseudomonas aeruginosa 13-35 assessed as fractional inhibitory concentration index in CAMH broth medium supplemented with 20.99 to 21.09 mM Mg2+ in presence of aztreonam by checkerboard assay; type: functional
[36] = test system: Pseudomonas aeruginosa; test: Synergistic antibacterial activity against Pseudomonas aeruginosa 12-1 assessed as fractional inhibitory concentration index in CAMH broth medium supplemented with 20.99 to 21.09 mM Mg2+ in presence of aztreonam by checkerboard assay; type: functional

SMILES	MIC [1] [µg/mL]	CC50 at 24 h [2] [µM]	CC50 at 24 h [3] [µM]	MIC [4] [µg/mL]	MIC [5] [µg/mL]	fractional inhibitory concentration index (FICI) [6]	fractional inhibitory concentration index (FICI) [7]	fractional inhibitory concentration index (FICI) [8]	fractional inhibitory concentration index (FICI) [9]	fractional inhibitory concentration index (FICI) [10]	fractional inhibitory concentration index (FICI) [11]	fractional inhibitory concentration index (FICI) [12]	fractional inhibitory concentration index (FICI) [13]	fractional inhibitory concentration index (FICI) [14]	fractional inhibitory concentration index (FICI) [15]	fractional inhibitory concentration index (FICI) [16]	fractional inhibitory concentration index (FICI) [17]	fractional inhibitory concentration index (FICI) [18]	fractional inhibitory concentration index (FICI) [19]	MIC [20] [µg/mL]	also measured
N=C(N)NCCC[C@H](NC(=O)[C@@H](N)Cc1ccccc1)C(=O)Nc1ccc2ccccc2c1 [PABETAN] (H-Phe-Arg-βNA)	512	> 100	> 100	2	512 (≈ 1150 µM)	0.5	0.5	0.375	0.75	0.5	1	0.375	0.375	0.313	0.375	0.313	0.5	<0.375	<0.75	512	MIC [21]: 512 µg/mL; MIC [22]: 512 µg/mL; MIC [23]: 512 µg/mL; MIC [24]: 512 µg/mL; MIC [25]: 512 µg/mL; MIC [26]: 128 µg/mL; MIC [27]: 128 µg/mL; MIC [28]: 128 µg/mL; MIC [29]: 128 µg/mL; MIC [30]: 128 µg/mL; MIC [31]: 128 µg/mL; fractional inhibitory concentration index (FICI) [32]: 0.5; fractional inhibitory concentration index (FICI) [33]: 0.5; fractional inhibitory concentration index (FICI) [34]: 1.25; fractional inhibitory concentration index (FICI) [35]: 0.375; fractional inhibitory concentration index (FICI) [36]: 1.25
NCCC[C@H](NC(=O)C[C@@H](N)Cc1ccccc1)C(=O)Nc1ccc2ccccc2c1	512	> 100	> 100	2	> 512	0.5	0.5	0.375	1.25	<0.5	1	0.5	0.375	0.313	0.375	0.313	0.5	<0.375	<0.5	512	MIC [21]: 512 µg/mL; MIC [22]: 512 µg/mL; MIC [23]: 512 µg/mL; MIC [24]: 512 µg/mL; MIC [25]: 512 µg/mL; MIC [26]: 128 µg/mL; MIC [27]: 128 µg/mL; MIC [28]: 128 µg/mL; MIC [29]: 128 µg/mL; MIC [30]: 128 µg/mL; MIC [31]: 128 µg/mL; fractional inhibitory concentration index (FICI) [32]: 0.5; fractional inhibitory concentration index (FICI) [33]: 0.5; fractional inhibitory concentration index (FICI) [34]: 1.25; fractional inhibitory concentration index (FICI) [35]: 0.5; fractional inhibitory concentration index (FICI) [36]: 1.25
